Laboratory results from patent US8110681B2, “Compounds for the treatment of spinal muscular atrophy and other uses” (The United States of America as represented by the …, priority 2006, dated 2012).
Read-outs that look alike come from different tables or passages of the source.

Test system: SMN2-linked luciferase-reporter gene construct
Test: SMN splice reporter assay (SMN2-linked luciferase reporter, Example 10)
Type: cell-based
Conditions: for maximal fold induction: read-out: SMN Splice Reporter Assay (Example 10) Avg MaxFold Increase
Procedure, shortened: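 Cervical carcinoma cells stably carrying an SMN2–luciferase splice reporter, in which luciferase is in frame only when SMN2 exon 7 is included, were treated with compound. Luciferase activity was read and expressed as fold increase over untreated transformed cells.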

[1] = SMN2-linked luciferase reporter, average
[2] = maximum fold increase of reporter signal, average
[3] = SMN2-linked luciferase reporter, average maximum fold increase

EC50 [1] [nM]	SMILES	maximal fold induction [2]	maximal fold induction [3]
61	CCCCc1ccc2c(c1)C(=O)N(c1ccc(C(C)C(=O)O)cc1)C2 (stereo not shown) [ALB-115086]	2.06	–
75	CC(C(=O)O)c1ccc(N2Cc3ccc(I)cc3C2=O)cc1 (stereo not shown) [ALB-115216]	1.87	–
–	COCCc1ccc(N2Cc3ccc(OC)cc3C2=O)cc1 [ALB-115217]	1.26	–
–	C/C=C/c1ccc2c(c1)C(=O)N(c1ccc(C(C)C)cc1)C2 [ALB-115319]	1.24	–
–	COCc1ccc(N2Cc3ccccc3C2=O)cc1 [ALB-115323]	1.1	–
74	CC(C)COc1ccc2c(c1)C(=O)N(c1ccc(C(C)C(=O)O)cc1)C2 (stereo not shown) [ALB-115325]	1.57	–
–	CC(C(=O)O)c1ccc(N2Cc3ccc(OCc4ccccc4)cc3C2=O)cc1 (stereo not shown) [ALB-115326]	1.24	–
76	C=Cc1ccc2c(c1)C(=O)N(c1ccc(C(C)COC)cc1)C2 (stereo not shown) [ALB-115327]	1.43	–
298	CCc1ccc2c(c1)C(=O)N(c1ccc(C(C)COC)cc1)C2 (stereo not shown) [ALB-115328]	1.5	–
399	COc1ccc2c(c1)C(=O)N(c1ccc(C3CCCC3)cc1)C2 [ALB-115422]	1.27	–
29	O=C1c2ccccc2CN1c1ccc(C2CCCCC2)cc1 [ALB-115423]	1.21	–
18	CC(C)=Cc1ccc2c(c1)C(=O)N(c1ccc(C(C)C(=O)O)cc1)C2 (stereo not shown) [ALB-115425]	1.95	–
13	CC(C)Cc1ccc2c(c1)C(=O)N(c1ccc(C(C)C(=O)O)cc1)C2 (stereo not shown) [ALB-115426]	1.96	–
–	COCC(C)(C)c1ccc(N2Cc3ccccc3C2=O)cc1 [ALB-115427]	1.31	–
556	COc1ccc2c(c1)C(=O)N(c1ccc(C3CCCCC3)cc1)C2 [ALB-115496]	1.39	–
83	CCCc1ccc(N2Cc3ccccc3C2=O)cc1 [ALB-115499]	1.27	–
115	CC(C(=O)O)c1ccc(N2Cc3ccc(OCC4CC4)cc3C2=O)cc1 (stereo not shown) [ALB-115500]	1.54	–
2320	CC(C(=O)O)c1ccc(N2Cc3ccc(/C=C/C(F)(F)F)cc3C2=O)cc1 (stereo not shown) [ALB-115501]	1.39	–
184	CC(C)(C)c1ccc(N2Cc3ccc(Br)cc3C2=O)cc1 [ALB-115583]	1.37	–
83	CC(C(=O)O)c1ccc(N2Cc3ccc(OCC4CCC4)cc3C2=O)cc1 (stereo not shown) [ALB-115585]	1.48	–
356	CC(C(=O)O)c1ccc(N2Cc3ccc(CCC(F)(F)F)cc3C2=O)cc1 (stereo not shown) [ALB-115588]	1.7	–
143	CCCc1ccc(N2Cc3ccc(Br)cc3C2=O)cc1 [ALB-115589]	1.39	–
–	O=C1c2cc(Br)ccc2CN1c1ccc(C2CCCCC2)cc1 [ALB-115590]	1.11	–
660	COCC(C)(C)c1ccc(N2Cc3ccc(OC)cc3C2=O)cc1 [ALB-115706]	1.26	–
–	CCCc1ccc(N2Cc3ccc(OC)cc3C2=O)cc1 [ALB-115708]	1.1	–
274	Cc1ccc(N2Cc3ccccc3C2=O)cc1C [ALB-115711]	1.33	–

EC50 [1] [nM]	SMILES	maximal fold induction [2]	maximal fold induction [3]
61	CCc1ccc2c(c1)C(=O)N(c1ccc(C(C)C)cc1)C2 [ALB-115713]	1.37	–
53	C=Cc1ccc2c(c1)C(=O)N(c1ccc(C(C)C)cc1)C2 [ALB-115714]	1.37	–
–	CC(C)c1ccc(N2Cc3ccc(N4CCCC4)cc3C2=O)cc1 [ALB-115715]	1.06	–
29	CC(C(=O)O)c1ccc(N2Cc3ccc(C4CC4)cc3C2=O)cc1 (stereo not shown) [ALB-115716]	1.59	–
–	Cc1ccc2c(c1)C(=O)N(c1ccc(C3CCCCC3)cc1)C2 [ALB-115717]	1.06	–
22	O=C1c2cc(Br)ccc2CN1c1ccc(C2CC2)cc1 [ALB-115718]	1.32	–
144	CC(C)c1ccc(N2Cc3cccc(Br)c3C2=O)cc1 [ALB-115801]	1.45	–
61	O=C1c2ccccc2CN1c1ccc(C2CC2)cc1 [ALB-115802]	–	1.28
15	COc1ccc2c(c1)C(=O)N(c1ccc(C3CC3)cc1)C2 [ALB-115803]	–	1.26
99	CC(C)c1ccc(N2Cc3ccc(N)cc3C2=O)cc1 [ALB-115805]	1.42	–
155	CC(C)=Cc1ccc2c(c1)C(=O)N(c1ccc(C(C)C)cc1)C2 [ALB-115807]	–	1.3
145	CC(C)c1ccc(N2Cc3cc(Br)ccc3C2=O)cc1 [ALB-115810]	1.44	–
–	CC(C)c1ccc(N2Cc3c(Br)cccc3C2=O)cc1 [ALB-115811]	1.16	–
114	Cc1cccc2c1CN(c1ccc(C(C)C)cc1)C2=O [ALB-115947]	1.39	–
6	Cc1ccc2c(c1)C(=O)N(c1ccc(C3CC3)cc1)C2 [ALB-115949]	–	1.37
179	COCC(C)c1ccc(N2Cc3ccc(CC(C)C)cc3C2=O)cc1 (stereo not shown) [ALB-115976]	1.29	–
–	COCc1ccc(N2Cc3ccc(OC)cc3C2=O)cc1 [ALB-116067]	1.24	–
51	Cc1ccc2c(c1)C(=O)N(c1ccc(C(C)(C)C)cc1)C2 [ALB-116068]	1.35	–
16	CCCc1ccc(N2Cc3ccc(C)cc3C2=O)cc1 [ALB-116071]	1.35	–
68	O=C1c2cc(Br)ccc2CN1c1ccc(C2CCCC2)cc1 [ALB-116072]	–	1.36
–	Cc1ccc2c(c1)C(=O)N(c1ccc(C3CCCC3)cc1)C2 [ALB-116073]	–	1.08
188	CCCOc1ccc2c(c1)C(=O)N(c1ccc(C(C)C)cc1)C2 [ALB-116075]	1.26	–
72	CC(C)Oc1ccc2c(c1)C(=O)N(c1ccc(C(C)C)cc1)C2 [ALB-116076]	1.35	–
–	CC(C)c1ccc(N2Cc3ccc(OC4CCCC4)cc3C2=O)cc1 [ALB-116077]	1.18	–
33	CCc1ccc(N2Cc3cc4c(cc3C2=O)OCCO4)cc1 [ALB-116240]	–	1.62
219	CC(C)Cc1ccc2c(c1)C(=O)N(c1ccc(C(C)C)cc1)C2 [ALB-116245]	1.36	–

EC50 [1] [nM]	SMILES	maximal fold induction [2]	maximal fold induction [3]
24	Cc1ccc(N2Cc3cc4c(cc3C2=O)OCCO4)cc1 [ALB-116363]	–	1.54
–	CC(C)c1ccc(N2Cc3ccc(N4CCOCC4)cc3C2=O)cc1 [ALB-116368]	1.08	–
–	O=C1c2cc3c(cc2CN1c1ccc(C2CCCCC2)cc1)OCCO3 [ALB-116417]	–	1.11
–	CC(C)c1ccc(N2Cc3ccc(N4CCCCC4)cc3C2=O)cc1 [ALB-116418]	1.15	–
121	CCN(CC)c1ccc2c(c1)C(=O)N(c1ccc(C(C)C)cc1)C2 [ALB-116639]	1.19	–
–	CC(C)c1ccc(N2Cc3ccc(CN(C)C)cc3C2=O)cc1 [ALB-116934]	1.05	–
68	O=C1c2cc3c(cc2CN1c1ccc(C2CC2)cc1)OCCO3 [ALB-117043]	–	1.57
70	CCCC(C)c1ccc(N2Cc3ccccc3C2=O)cc1 (stereo not shown) [ALB-117045]	1.25	–
269	CC(=O)N(C)c1ccc2c(c1)C(=O)N(c1ccc(C(C)C)cc1)C2 [ALB-117047]	–	1.39
180	COc1ccc2c(c1)CN(c1ccc(C(C)C)cc1)C2=O [ALB-117453]	1.28	–
401	CC(C#N)c1ccc(N2Cc3cc4c(cc3C2=O)OCCO4)cc1 (stereo not shown) [ALB-117571]	–	1.3
163	CC(C)c1ccc(N2Cc3cccc(N)c3C2=O)cc1 [ALB-117574]	1.73	–
319	COc1cc2c(cc1OC)C(=O)N(c1ccc(C(C)C)cc1)C2 [ALB-117672]	1.47	–
34	CC(C)c1ccc(N2Cc3cc(N)ccc3C2=O)cc1 [ALB-117747]	1.49	–
166	COc1cccc2c1C(=O)N(c1ccc(C(C)C)cc1)C2 [ALB-117748]	1.34	–
27	CC(C)c1ccc(N2Cc3ccc4c(c3C2=O)OCO4)cc1 [ALB-117751]	–	1.34
42	CC(C)c1ccc(N2Cc3cc(N(C)C)ccc3C2=O)cc1 [ALB-117752]	1.38	–
183	CC(C)c1ccc(N2Cc3cccc(I)c3C2=O)cc1 [ALB-117753]	1.6	–
–	COc1cc2c(c(OC)c1Br)C(=O)N(c1ccc(C(C)C)cc1)C2 [ALB-117901]	1.07	–
–	CC(C)c1ccc(N2Cc3ccc(O)c(O)c3C2=O)cc1 [ALB-117903]	–	1.07
4370	CC(C)c1ccc(N2Cc3cccc(N(C)C)c3C2=O)cc1 [ALB-117904]	1.46	–
414	CNc1cccc2c1C(=O)N(c1ccc(C(C)C)cc1)C2 [ALB-117905]	1.55	–
447	COc1cc2c(c(OC)c1)C(=O)N(c1ccc(C(C)C)cc1)C2 [ALB-118034]	1.3	–
–	COc1cc2c(cc1O)CN(c1ccc(C(C)C)cc1)C2=O [ALB-118035]	–	1.13
2670	COc1ccc2c(c1OC)C(=O)N(c1ccc(C(C)C)cc1)C2 [ALB-118036]	1.29	–
937	CC(C)c1ccc(N2Cc3ccc(-c4ccccc4)cc3C2=O)cc1 [ALB-118037]	1.34	–
